Source: PubChem BioAssay (NCI)
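The compound was tested at five concentrations on cells cultured in 96-well plates, with a 48-hour exposure period. GI50 marks 50% less growth. TGI marks complete inhibition of growth.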

Columns and labels:
Test in all cases: DTP human tumour cell line panel, 48 h
K-562 leukemia = test system: K-562 leukemia
IGROV1 ovarian = test system: IGROV1 ovarian
NCI-H226 lung = test system: NCI-H226 lung
SF-539 CNS = test system: SF-539 CNS
OVCAR-4 ovarian = test system: OVCAR-4 ovarian
NCI-H522 lung = test system: NCI-H522 lung
HS 578T breast = test system: HS 578T breast
HL-60(TB) leukemia = test system: HL-60(TB) leukemia
BT-549 breast = test system: BT-549 breast
UACC-257 melanoma = test system: UACC-257 melanoma

With `O=C1c2ccccc2C(=O)c2c1oc1c2c(=O)[nH]c2ccc(Cl)cc21` the GI50 (K-562 leukemia) was 0.375 µM, the TGI (K-562 leukemia) was 2.01 µM and the GI50 (IGROV1 ovarian) was 0.222 µM. For the same compound, the TGI (IGROV1 ovarian) was 0.746 µM, the GI50 (NCI-H226 lung) was 0.143 µM and the TGI (NCI-H226 lung) was 0.355 µM. It also gave a GI50 (SF-539 CNS) of 0.229 µM, a TGI (SF-539 CNS) of 0.566 µM and a GI50 (OVCAR-4 ovarian) of 0.165 µM. It also gave a TGI (OVCAR-4 ovarian) of 0.443 µM, a GI50 (NCI-H522 lung) of 0.318 µM and a TGI (NCI-H522 lung) of 1.4 µM. The GI50 (HS 578T breast) was 0.264 µM, the TGI (HS 578T breast) was 1.37 µM and the GI50 (HL-60(TB) leukemia) was 1.7 µM. The TGI (HL-60(TB) leukemia) was 5.25 µM, the GI50 (BT-549 breast) was 0.304 µM and the TGI (BT-549 breast) was 1.31 µM. The GI50 (UACC-257 melanoma) was 1.33 µM and the TGI (UACC-257 melanoma) was 3.36 µM.

With `Cc1cc(=O)oc2cc3oc(N(C)c4ccccc4)nc(=O)c3cc12` the TGI (K-562 leukemia) was > 100 µM, the TGI (IGROV1 ovarian) was > 100 µM and the TGI (NCI-H226 lung) was > 100 µM. For the same compound, the TGI (SF-539 CNS) was > 100 µM, the TGI (OVCAR-4 ovarian) was > 100 µM and the TGI (NCI-H522 lung) was > 100 µM. For the same compound, the TGI (HS 578T breast) was > 100 µM, the TGI (HL-60(TB) leukemia) was > 100 µM and the TGI (BT-549 breast) was > 100 µM. For the same compound, the TGI (UACC-257 melanoma) was > 100 µM.

`C#CCOC(=O)/C=C/C(=O)Oc1ccc2c(C)cc(=O)oc2c1` was tested, and the GI50 (K-562 leukemia) was > 100 µM, the TGI (K-562 leukemia) was > 100 µM and the GI50 (IGROV1 ovarian) was > 100 µM. For the same compound, the TGI (IGROV1 ovarian) was > 100 µM, the GI50 (NCI-H226 lung) was > 100 µM and the TGI (NCI-H226 lung) was > 100 µM. The GI50 (SF-539 CNS) was > 100 µM, the TGI (SF-539 CNS) was > 100 µM and the GI50 (OVCAR-4 ovarian) was > 100 µM. For the same compound, the TGI (OVCAR-4 ovarian) was > 100 µM, the GI50 (NCI-H522 lung) was > 100 µM and the TGI (NCI-H522 lung) was > 100 µM. For the same compound, the GI50 (HS 578T breast) was > 100 µM, the TGI (HS 578T breast) was > 100 µM and the GI50 (HL-60(TB) leukemia) was > 100 µM. The TGI (HL-60(TB) leukemia) was > 100 µM, the GI50 (BT-549 breast) was > 100 µM and the TGI (BT-549 breast) was > 100 µM. For the same compound, the GI50 (UACC-257 melanoma) was > 100 µM and the TGI (UACC-257 melanoma) was > 100 µM.

In the case of `CCCCc1n(Cc2ccc3ccccc3n2)cc[n+]1Cc1ccc2ccccc2n1`, the GI50 (K-562 leukemia) is reported as 0.621 µM, the TGI (K-562 leukemia) is reported as 12.3 µM and the GI50 (IGROV1 ovarian) is reported as 1.17 µM. For the same compound, the TGI (IGROV1 ovarian) was 10.9 µM, the GI50 (NCI-H226 lung) was 2.26 µM and the TGI (NCI-H226 lung) was 11.8 µM. For the same compound, the GI50 (SF-539 CNS) was 1.8 µM, the TGI (SF-539 CNS) was 12.6 µM and the GI50 (OVCAR-4 ovarian) was 0.381 µM. The TGI (OVCAR-4 ovarian) was 13.5 µM, the GI50 (NCI-H522 lung) was 0.445 µM and the TGI (NCI-H522 lung) was 4.99 µM. For the same compound, the GI50 (HS 578T breast) was 2.76 µM, the TGI (HS 578T breast) was 16.5 µM and the GI50 (HL-60(TB) leukemia) was 0.295 µM. For the same compound, the TGI (HL-60(TB) leukemia) was 1.11 µM, the GI50 (BT-549 breast) was 0.97 µM and the TGI (BT-549 breast) was 5.86 µM. It also gave a GI50 (UACC-257 melanoma) of 0.543 µM and a TGI (UACC-257 melanoma) of 4.32 µM.

`FC(F)(F)c1cc(NC(=S)N2c3ccccc3-n3cccc3C2c2cccnc2)cc(C(F)(F)F)c1` (stereo not drawn) gave a GI50 (K-562 leukemia) of 3.58 µM, a TGI (K-562 leukemia) of 19.3 µM and a GI50 (IGROV1 ovarian) of 8.76 µM. For the same compound, the TGI (IGROV1 ovarian) was 22.9 µM, the GI50 (NCI-H226 lung) was 22.7 µM and the TGI (NCI-H226 lung) was 54.7 µM. It also gave a GI50 (SF-539 CNS) of 14.7 µM, a TGI (SF-539 CNS) of 37.4 µM and a GI50 (OVCAR-4 ovarian) of 6.24 µM. It also gave a TGI (OVCAR-4 ovarian) of 23.8 µM, a GI50 (NCI-H522 lung) of 3.68 µM and a TGI (NCI-H522 lung) of 13.7 µM. For the same compound, the GI50 (HS 578T breast) was 12.5 µM, the TGI (HS 578T breast) was 40.6 µM and the GI50 (HL-60(TB) leukemia) was 3.87 µM. For the same compound, the TGI (HL-60(TB) leukemia) was 21.4 µM, the GI50 (BT-549 breast) was 8.96 µM and the TGI (BT-549 breast) was 45.7 µM. It also gave a GI50 (UACC-257 melanoma) of 3.9 µM and a TGI (UACC-257 melanoma) of 15.7 µM.

In the case of `O=S(=O)(O)n1ccnc1` (tested in a mixture with another compound), the TGI (K-562 leukemia) is reported as > 100 µM, the TGI (IGROV1 ovarian) is reported as > 100 µM and the TGI (NCI-H226 lung) is reported as > 100 µM. For the same compound, the TGI (SF-539 CNS) was > 100 µM, the TGI (OVCAR-4 ovarian) was > 100 µM and the TGI (NCI-H522 lung) was > 100 µM. For the same compound, the TGI (HS 578T breast) was > 100 µM, the TGI (HL-60(TB) leukemia) was > 100 µM and the TGI (BT-549 breast) was > 100 µM. For the same compound, the TGI (UACC-257 melanoma) was > 100 µM.

Compound `O=C(Nc1ccccc1Cl)c1ccc(NC2=C(Cl)C(=O)N(C3CCCCC3)C2=O)cc1` has a GI50 (K-562 leukemia) of 2.88 µM, a TGI (K-562 leukemia) of 17.9 µM and a GI50 (IGROV1 ovarian) of 6.87 µM. The TGI (IGROV1 ovarian) was 23.3 µM, the GI50 (NCI-H226 lung) was 9.4 µM and the TGI (NCI-H226 lung) was 31.8 µM. The GI50 (SF-539 CNS) was 27.3 µM, the TGI (SF-539 CNS) was 58.5 µM and the GI50 (OVCAR-4 ovarian) was 25.1 µM. For the same compound, the TGI (OVCAR-4 ovarian) was 74.9 µM, the GI50 (NCI-H522 lung) was 6.23 µM and the TGI (NCI-H522 lung) was 34.7 µM. It also gave a GI50 (HS 578T breast) of 6.75 µM, a TGI (HS 578T breast) of 133 µM and a GI50 (HL-60(TB) leukemia) of 3.38 µM. The TGI (HL-60(TB) leukemia) was 8.48 µM, the GI50 (BT-549 breast) was 20.7 µM and the TGI (BT-549 breast) was 47.1 µM. It also gave a GI50 (UACC-257 melanoma) of 5.29 µM and a TGI (UACC-257 melanoma) of 15 µM.

`Fc1ccc(-c2ncn(CCCN3CCOCC3)c2-c2ccncc2)cc1` was tested, and the GI50 (K-562 leukemia) was > 25 µM, the TGI (K-562 leukemia) was > 25 µM and the GI50 (IGROV1 ovarian) was > 25 µM. The TGI (IGROV1 ovarian) was > 25 µM, the GI50 (NCI-H226 lung) was > 25 µM and the TGI (NCI-H226 lung) was > 25 µM. The GI50 (SF-539 CNS) was > 25 µM, the TGI (SF-539 CNS) was > 25 µM and the GI50 (OVCAR-4 ovarian) was > 25 µM. For the same compound, the TGI (OVCAR-4 ovarian) was > 25 µM, the GI50 (NCI-H522 lung) was > 25 µM and the TGI (NCI-H522 lung) was > 25 µM. The GI50 (HS 578T breast) was > 25 µM, the TGI (HS 578T breast) was > 25 µM and the GI50 (HL-60(TB) leukemia) was > 25 µM. The TGI (HL-60(TB) leukemia) was > 25 µM, the GI50 (BT-549 breast) was > 25 µM and the TGI (BT-549 breast) was > 25 µM. The GI50 (UACC-257 melanoma) was > 25 µM and the TGI (UACC-257 melanoma) was > 25 µM.

`CC(C)=Cc1cccc2[nH]c(O)c(N=Nc3ccc(S(N)(=O)=O)cc3)c12` was tested, and the GI50 (K-562 leukemia) was 3.69 µM, the TGI (K-562 leukemia) was > 25 µM and the GI50 (IGROV1 ovarian) was > 25 µM. For the same compound, the TGI (IGROV1 ovarian) was > 25 µM, the GI50 (NCI-H226 lung) was > 6.16 µM and the TGI (NCI-H226 lung) was > 25 µM. For the same compound, the GI50 (SF-539 CNS) was 2.72 µM, the TGI (SF-539 CNS) was > 20.1 µM and the GI50 (OVCAR-4 ovarian) was 1.26 µM. For the same compound, the TGI (OVCAR-4 ovarian) was > 25 µM, the GI50 (NCI-H522 lung) was > 25 µM and the TGI (NCI-H522 lung) was > 25 µM. It also gave a GI50 (HS 578T breast) of 0.506 µM, a TGI (HS 578T breast) of 16.4 µM and a GI50 (HL-60(TB) leukemia) of 3.37 µM. For the same compound, the TGI (HL-60(TB) leukemia) was > 25 µM, the GI50 (BT-549 breast) was > 22.8 µM and the TGI (BT-549 breast) was > 25 µM. For the same compound, the GI50 (UACC-257 melanoma) was > 25 µM and the TGI (UACC-257 melanoma) was > 25 µM.

`CC(=O)Nc1ccc(OC(C)=O)cc1` was tested, and the GI50 (K-562 leukemia) was < 0.01 µM, the TGI (K-562 leukemia) was > 57.2 µM and the GI50 (IGROV1 ovarian) was < 0.0122 µM. The TGI (IGROV1 ovarian) was > 48.5 µM, the GI50 (NCI-H226 lung) was < 0.01 µM and the GI50 (SF-539 CNS) was < 0.01 µM. For the same compound, the TGI (SF-539 CNS) was 0.766 µM, the GI50 (OVCAR-4 ovarian) was < 0.01 µM and the TGI (OVCAR-4 ovarian) was > 91.7 µM. The GI50 (NCI-H522 lung) was < 0.01 µM, the TGI (NCI-H522 lung) was < 0.01 µM and the GI50 (HS 578T breast) was < 0.0166 µM. For the same compound, the TGI (HS 578T breast) was 61.5 µM, the GI50 (HL-60(TB) leukemia) was < 0.01 µM and the TGI (HL-60(TB) leukemia) was < 0.01 µM. The GI50 (BT-549 breast) was < 0.01 µM, the TGI (BT-549 breast) was 0.165 µM and the TGI (UACC-257 melanoma) was 29.7 µM.
